Three molecules from ChEMBL document CHEMBL3244025, “Carbocyclic arabinosyladenine, an adenosine deaminase resistant antiviral agent” (J Med Chem, 1977) can be followed below.

Data set [1] is described as follows: Stability of the compound assessed as calf intestinal adenosine deaminase type 3-mediated deamination. The class given is ADME, Bos taurus. Conditions: cattle.
Data set [2] in a line: Cytotoxicity against human Hep2 cells. It counts as cell-based. Conditions: hep-2.
In data set [3] the test system is Human alphaherpesvirus 1. The experiment in a line: Antiviral activity against Herpes simplex virus type 1 HF infected in human Hep2 cells assessed as inhibition of virus-induced cytopathogenic effect. The class given is functional, HEp-2.
Data set [4] has as its system P388. The experiment in a line: Cytotoxicity against mouse P388 cells after 72 hrs by hemocytometric analysis. The class given is functional.
A short description of data set [5]: Stability of the compound assessed as calf intestinal adenosine deaminase type 3-mediated deamination in presence of C-ara-A. It counts as ADME, Bos taurus. Conditions: cattle.

Regarding `Nc1ncnc2c1ncn2[C@@H]1C[C@H](CO)[C@@H](O)[C@@H]1O` (racemic), the Stability result in data set [1] is recorded as “Stable”. In data set [2], this molecule registered an Activity of 9 µg/mL. Moreover, the MED50 in data set [3] was determined as 2.8 µg/mL. The same molecule came in with an LD50 in data set [4] of 1 ×10⁻⁵ M.
In the case of `Nc1ncnc2c1ncn2[C@@H]1O[C@H](CO)[C@@H](O)[C@H]1O` [ADENOSINE], the Stability entry in data set [5] is reported as “Unstable”.
For the molecule `Nc1ncnc2c1ncn2[C@@H]1O[C@H](CO)[C@@H](O)[C@@H]1O` [VIDARABINE], the Stability result in data set [1] and in data set [5] was “Unstable” each time. Moreover, the LD50 in data set [4] amounted to 1 ×10⁻⁵ M.
